# Test results reported in ChEMBL document CHEMBL1125035, “Synthesis and biological activity of novel vitamin D analogues: 24,24-difluoro-25-hydroxy-26,27-dimethylvitamin D3 and 24,24-difluoro-1 alpha,25-dihydroxy-26,27-dimethylvitamin D3” (1990).
# Columns and labels:
# [1] = tested on: Rattus norvegicus; assay: Ability to mobilize Bone-Calcium transport, following the administration of compound in rats at a concentration of 5 pmol at 24 hr.; format: functional, organism-based
# [2] = tested on: Rattus norvegicus; assay: Ability to stimulate intestinal-calcium transport by the administration of compound in rats at a concentration of 5 pmol at 24 hr.; format: functional, Intestine
# [3] = tested on: Rattus norvegicus; assay: Ability to mobilize Bone-Calcium transport, following the administration of compound in rats at a concentration of 500 pmol at 24 hr.; format: functional, organism-based
# [4] = tested on: Rattus norvegicus; assay: Ability to stimulate intestinal-calcium transport by the administration of compound in rats at a concentration of 500 pmol at 72 hr.; format: functional, Intestine
# [5] = tested on: Rattus norvegicus; assay: Ability to stimulate intestinal-calcium transport by the administration of compound in rats at a concentration of 500 pmol at 4 hr.; format: functional, Intestine
# [6] = tested on: Rattus norvegicus; assay: Ability to mobilize Bone-Calcium transport, following the administration of compound in rats at a concentration of 50 pmol at 4 hr.; format: functional, organism-based
# [7] = tested on: Rattus norvegicus; assay: Ability to stimulate intestinal-calcium transport by the administration of compound in rats at a concentration of 5 pmol at 2 hr.; format: functional, Intestine
# [8] = tested on: Rattus norvegicus; assay: Ability to stimulate intestinal-calcium transport by the administration of compound in rats at a concentration of 5000 pmol at 2 hr.; format: functional, Intestine
# [9] = tested on: Rattus norvegicus; assay: Ability to mobilize Bone-Calcium transport, following the administration of compound in rats at a concentration of 5 pmol at 4 hr.; format: functional, organism-based
# [10] = tested on: Rattus norvegicus; assay: Ability to stimulate intestinal-calcium transport by the administration of compound in rats at a concentration of 5000 pmol at 47 hr.; format: functional, Intestine
# [11] = tested on: Rattus norvegicus; assay: Ability to stimulate intestinal-calcium transport by the administration of compound in rats at a concentration of 5 pmol at 4 hr.; format: functional, Intestine
# [12] = tested on: Rattus norvegicus; assay: Ability to stimulate intestinal-calcium transport by the administration of compound in rats at a concentration of 5000 pmol at 24 hr.; format: functional, Intestine
# [13] = tested on: Rattus norvegicus; assay: Ability to mobilize Bone-Calcium transport, following the administration of compound in rats at a concentration of 500 pmol at 2 hr.; format: functional, organism-based
# [14] = tested on: Rattus norvegicus; assay: Ability to mobilize Bone-Calcium transport, following the administration of compound in rats at a concentration of 5000 pmol at 24 hr.; format: functional, organism-based
# [15] = tested on: Rattus norvegicus; assay: Ability to mobilize Bone-Calcium transport, following the administration of compound in rats at a concentration of 500 pmol at 4 hr.; format: functional, organism-based
# [16] = tested on: Rattus norvegicus; assay: Ability to mobilize Bone-Calcium transport, following the administration of compound in rats at a concentration of 5000 pmol at 4 hr.; format: functional, organism-based
# [17] = tested on: Rattus norvegicus; assay: Ability to stimulate intestinal-calcium transport by the administration of compound in rats at a concentration of 500 pmol at 2 hr.; format: functional, Intestine
# [18] = tested on: Rattus norvegicus; assay: Ability to stimulate intestinal-calcium transport by the administration of compound in rats at a concentration of 5000 pmol at 4 hr.; format: functional, Intestine
# [19] = tested on: Rattus norvegicus; assay: Ability to mobilize Bone-Calcium transport, following the administration of compound in rats at a concentration of 5000 pmol at 13 hr.; format: functional, organism-based
# [20] = tested on: Rattus norvegicus; assay: Ability to stimulate intestinal-calcium transport by the administration of compound in rats at a concentration of 50 pmol at 4 hr.; format: functional, Intestine
# [21] = target: T1, Vitamin D-binding protein (Rattus norvegicus) (UniProt P04276); assay: Displacement of [3H]25-(OH)-D3 from rat plasma Vitamin D binding protein; format: cell-free
# T1 sequence (whole entry): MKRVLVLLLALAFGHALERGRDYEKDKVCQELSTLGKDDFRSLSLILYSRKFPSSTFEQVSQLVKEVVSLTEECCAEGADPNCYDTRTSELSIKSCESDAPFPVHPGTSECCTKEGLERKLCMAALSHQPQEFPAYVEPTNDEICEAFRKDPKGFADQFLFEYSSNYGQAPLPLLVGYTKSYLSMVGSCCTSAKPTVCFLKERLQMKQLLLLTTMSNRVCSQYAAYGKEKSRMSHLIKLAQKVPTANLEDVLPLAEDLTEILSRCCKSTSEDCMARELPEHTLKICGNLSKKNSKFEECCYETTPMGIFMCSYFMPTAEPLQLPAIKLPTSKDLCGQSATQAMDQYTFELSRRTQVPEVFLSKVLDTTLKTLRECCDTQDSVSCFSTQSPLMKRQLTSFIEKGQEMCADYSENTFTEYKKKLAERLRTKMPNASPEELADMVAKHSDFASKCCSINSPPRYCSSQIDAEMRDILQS
# [22] = tested on: Rattus norvegicus; assay: Ability to stimulate intestinal-calcium transport by the administration of compound in rats at a concentration of 50 pmol at 24 hr.; format: functional, Intestine
# [23] = tested on: Rattus norvegicus; assay: Ability to mobilize Bone-Calcium transport, following the administration of compound in rats at a concentration of 500 pmol at 47 hr.; format: functional, organism-based
# [24] = tested on: Rattus norvegicus; assay: Ability to mobilize Bone-Calcium transport, following the administration of compound in rats at a concentration of 5 pmol at 2 hr.; format: functional, organism-based
# [25] = tested on: Rattus norvegicus; assay: Ability to mobilize Bone-Calcium transport, following the administration of compound in rats at a concentration of 5000 pmol at 2 hr.; format: functional, organism-based
# [26] = tested on: Rattus norvegicus; assay: Ability to mobilize Bone-Calcium transport, following the administration of compound in rats at a concentration of 50 pmol at 72 hr.; format: functional, organism-based
# [27] = tested on: Rattus norvegicus; assay: Ability to stimulate intestinal-calcium transport by the administration of compound in rats at a concentration of 5 pmol at 47 hr.; format: functional, Intestine
# [28] = tested on: Rattus norvegicus; assay: Ability to stimulate intestinal-calcium transport by the administration of compound in rats at a concentration of 50 pmol at 2 hr.; format: functional, Intestine
# [29] = tested on: Rattus norvegicus; assay: Ability to mobilize Bone-Calcium transport, following the administration of compound in rats at a concentration of 50 pmol at 2 hr.; format: functional, organism-based
# [30] = tested on: Rattus norvegicus; assay: Ability to stimulate intestinal-calcium transport by the administration of compound in rats at a concentration of 50 pmol at 72 hr.; format: functional, Intestine
# [31] = species: Gallus gallus; assay: Bind to chick intestinal Vitamin D3 receptor for 1,25-(OH)2-D3
# [32] = tested on: Rattus norvegicus; assay: Ability to mobilize Bone-Calcium transport, following the administration of compound in rats at a concentration of 50 pmol at 24 hr.; format: functional, organism-based
# [33] = tested on: Rattus norvegicus; assay: Ability to stimulate intestinal-calcium transport by the administration of compound in rats at a concentration of 500 pmol at 24 hr.; format: functional, Intestine
# [34] = tested on: Rattus norvegicus; assay: Ability to stimulate intestinal-calcium transport by the administration of compound in rats at a concentration of 5 pmol at 12 hr.; format: functional, Intestine
# [35] = tested on: Rattus norvegicus; assay: Ability to mobilize Bone-Calcium transport, following the administration of compound in rats at a concentration of 500 pmol at 48 hr.; format: functional, organism-based
# [36] = tested on: Rattus norvegicus; assay: Ability to mobilize Bone-Calcium transport, following the administration of compound in rats at a concentration of 5000 pmol at 48 hr.; format: functional, organism-based
# [37] = tested on: Rattus norvegicus; assay: Ability to mobilize Bone-Calcium transport, following the administration of compound in rats at a concentration of 5000 pmol at 12 hr.; format: functional, organism-based
# [38] = tested on: Rattus norvegicus; assay: Ability to mobilize Bone-Calcium transport, following the administration of compound in rats at a concentration of 50 pmol at 12 hr.; format: functional, organism-based
Compound,Serum Ca2+ [1] [mg/dL],Serosal/Mucosal Ca [2],Serum Ca2+ [3] [mg/dL],Serosal/Mucosal Ca [5],Serum Ca2+ [6] [mg/dL],Serosal/Mucosal Ca [7],Serosal/Mucosal Ca [8],Serum Ca2+ [9] [mg/dL],Serosal/Mucosal Ca [11],Serosal/Mucosal Ca [12],Serum Ca2+ [13] [mg/dL],Serum Ca2+ [14] [mg/dL],Serum Ca2+ [15] [mg/dL],Serum Ca2+ [16] [mg/dL],Serosal/Mucosal Ca [17],Serosal/Mucosal Ca [18],Serosal/Mucosal Ca [20],B50 [21] [nM],Serosal/Mucosal Ca [22],Serum Ca2+ [24] [mg/dL],other results
C=C1CC[C@H](O)C/C1=C/C=C1\CCC[C@]2(C)[C@@H]([C@H](C)CCCC(C)(C)O)CC[C@@H]12 [CALCIFEDIOL ANHYDROUS],4.34,2.84,5.5,2.83,4.1,2.03,2.93,4.14,2.42,7.19,4.66,5.82,4.22,4.12,2.22,3.31,2.17,3.77,4.8,4.32,Serosal/Mucosal Ca [4]: 9.89; Serosal/Mucosal Ca [10]: 11.01; Serum Ca2+ [19]: 6.82 mg/dL; Serum Ca2+ [23]: 5.12 mg/dL; Serum Ca2+ [25]: 4.64 mg/dL; Serum Ca2+ [26]: 4.52 mg/dL; Serosal/Mucosal Ca [27]: 3.41; Serosal/Mucosal Ca [28]: 1.75; Serum Ca2+ [29]: 4.48 mg/dL; Serosal/Mucosal Ca [30]: 8.87; B50 [31]: 282 nM; Serum Ca2+ [32]: 5.06 mg/dL; Serosal/Mucosal Ca [33]: 7.19
C=C1/C(=C\C=C2/CCC[C@]3(C)[C@@H]([C@H](C)CCC(F)(F)C(O)(CC)CC)CC[C@@H]23)C[C@@H](O)C[C@@H]1O,4.38,2.14,5.58,6.44,5,2.08,3.7,4.28,3.36,5.32,4.8,6.36,5.1,5.48,4.55,4.84,4.22,2200,3.93,4.5,Serosal/Mucosal Ca [34]: 2.85; Serum Ca2+ [35]: 4.94 mg/dL; Serum Ca2+ [36]: 5.86 mg/dL; Serum Ca2+ [37]: 6.4 mg/dL; Serum Ca2+ [25]: 5.1 mg/dL; Serosal/Mucosal Ca [28]: 2.27; Serum Ca2+ [29]: 4.42 mg/dL; B50 [31]: 0.495 nM; Serum Ca2+ [32]: 4.74 mg/dL; Serosal/Mucosal Ca [33]: 7.3; Serum Ca2+ [38]: 5.5 mg/dL
C=C1/C(=C\C=C2/CCC[C@]3(C)[C@@H]([C@H](C)CCCC(C)(C)O)CC[C@@H]23)C[C@@H](O)C[C@@H]1O [CALCITRIOL],4.58,2.95,4.98,6.6,4.58,2.21,3.12,4.32,2.53,4.71,4.76,5.5,5.32,5.6,3.1,7.66,5.09,45.3,4.34,4.4,Serosal/Mucosal Ca [34]: 2.62; Serum Ca2+ [35]: 4.35 mg/dL; Serum Ca2+ [36]: 4.78 mg/dL; Serum Ca2+ [37]: 6.14 mg/dL; Serum Ca2+ [25]: 4.84 mg/dL; Serosal/Mucosal Ca [28]: 2.5; Serum Ca2+ [29]: 4.35 mg/dL; B50 [31]: 0.0725 nM; Serum Ca2+ [32]: 5 mg/dL; Serosal/Mucosal Ca [33]: 3.5; Serum Ca2+ [38]: 5.58 mg/dL
C=C1CC[C@H](O)C/C1=C/C=C1\CCC[C@]2(C)[C@@H]([C@H](C)CCC(F)(F)C(O)(CC)CC)CC[C@@H]12,4.9,2.34,5.1,2.27,4.18,1.89,3.77,4.38,1.61,8.65,4.22,5.9,4.4,4.56,2.58,3.18,1.97,25.8,6.16,4.4,Serosal/Mucosal Ca [4]: 7.29; Serosal/Mucosal Ca [10]: 11.06; Serum Ca2+ [19]: 5.92 mg/dL; Serum Ca2+ [23]: 4.5 mg/dL; Serum Ca2+ [25]: 4.78 mg/dL; Serum Ca2+ [26]: 4.64 mg/dL; Serosal/Mucosal Ca [27]: 2.59; Serosal/Mucosal Ca [28]: 1.8; Serum Ca2+ [29]: 4.28 mg/dL; Serosal/Mucosal Ca [30]: 2.84; B50 [31]: 52.8 nM; Serum Ca2+ [32]: 4.72 mg/dL; Serosal/Mucosal Ca [33]: 7.11
